# Laboratory results taken from PMC7024204, “Synthesis, Crystal Structure, and Biological Activity of a Multidentate Calix[4]arene Ligand Doubly Functionalized by 2-Hydroxybenzeledene-Thiosemicarbazone” (Molecules, 2020).
# Like-named read-outs stand apart in the source and are kept apart here.
# Experiments:
# MG-63 cell line = test: MTT cytotoxicity assay; assay type: cell-based, human; settings: for IC50: Homo sapiens, MG-63, MTT, 48 h, read-out: In vitro cytotoxic activity IC50; for anti-cancer effect: MG-63, especially at 2.5–20 μg/mL
# Procedure: (§1) The colorimetric MTT assay, introduced by Mossmann, was used for the evaluation of the anti-cancer activity of our synthesized compounds against Saos-2 and MG-63 cell lines (human bone cancer cells). These cells were obtained from the Pasteur Institute of Iran, Tehran, Iran and maintained in RPMI 1640 medium supplemented with 10% FBS and 1% benzylpenicillin/streptomycin. […] The cells without treatment were considered as the control. After 48 h, the medium was removed and replaced with 200 μL of fresh medium containing 100 μg mL^−1 MTT powder and incubated for a further 4 h. The medium was then withdrawn and 100 μL of DMSO was added to dissolve the formazan crystals inside the cells. The absorbance of solubilized formazan was detected at 570 nm with the reference wavelength of 630 nm using an ELISA plate reader (Stat Fax, 2100, Awareness Technology Inc., Palm City, FL, USA). The viability of cells in each well was calculated by the following formula:(1) viability of cells (%)=mean absorbance of sample/mean absorbance of control×100.
# Saos-2 cell line [1] = test: MTT cytotoxicity assay; assay type: cell-based, human; settings: for IC50: Homo sapiens, Saos-2, MTT, 48 h, read-out: In vitro cytotoxic activity IC50; for anti-cancer effect: Saos-2, especially at 2.5–20 μg/mL
# Procedure: as §1
# E. coli (ATCC 25922) = test: Broth microdilution (serial double dilution) MIC/MBC; assay type: cell-based, Escherichia coli; settings: for MIC / MBC: Escherichia coli; for MIC: ATCC25922, 24 h, 37 °C, micro-broth dilution; for MBC: ATCC25922, micro-broth dilution
# Procedure: (§2) S. aureus (ATCC® 29213™), B. subtilis (ATCC® 6633™), E. coli (ATCC® 25922™), P. aeruginosa (ATCC® 27853™), C. albicans (ATCC® 10231™), and C. glabrata (ATCC® 2001™) were cultured onto sterile Mueller-Hinton agar plates, and incubated at 37 °C for 24 h. After incubation, a single colony was selected to inoculate a sterile tube containing 2 mL of sterile normal saline to match the turbidity of a 0.5 McFarland standard (10^8 cfu/mL). Further dilution was done with sterile normal saline to 10^5 cfu/mL before incubation.
# (§3) Serial dilution of the synthesized compounds suspension in DMSO (2000–15.62 μg/mL) was done in a sterile 96-well plate. Then, 20 μL of an overnight bacterial and fungal suspension and 180 μL of the compounds suspension in MHB (and 1% glucose for fungal strains) were mixed in each well. The final concentration of DMSO was 10%. After 24 h of incubation at 37 °C, the first concentration with no bacterial growth is regarded as the minimum inhibitory concentration (MIC). Controls (microorganism strain in MHB without chemical and MHB alone) were included in each measurement. Aliquots of 5 μL from wells in which no growth was observed were spotted onto Mueller–Hinton agar plates to determine the minimum bactericidal concentration (MBC) values. The MBC was read as the lowest concentration with no growth after 24 h of incubation.
# S. aureus (ATCC 29213) = test: as above; assay type: cell-based; settings: Staphylococcus aureus
# Procedure: as §2, §3
# B. subtilis (ATCC 6633) = test: as above; assay type: cell-based; settings: Bacillus subtilis; for MIC: ATCC6633, 24 h, 37 °C, micro-broth dilution
# Procedure: as §2, §3
# [2] = tested on: P. aeruginosa (ATCC 27853); test: as above; assay type: cell-based, Pseudomonas aeruginosa; settings: for MIC: ATCC27853, 24 h, 37 °C, micro-broth dilution
# Procedure: as §2, §3
# Saos-2 cells = test: DAPI staining, morphology of cell nuclei; assay type: cell-based, human; settings: Saos-2, 48 h exposure at IC50
# Procedure: To visually study the apoptotic effects of the synthesized compounds (L and its Co, Ni, Cu, and Zn complexes), the 4′,6-diamidino-2-phenylindole (DAPI) staining assay was performed according to the literature procedure. Briefly, Saos-2 cells were seeded in six-well plates (5 × 10^4 cells per well) and incubated at 37 °C for 24 h. After the growth of the cells, the culture media were replaced by fresh media containing L and its metal derivatives (sterile filtered through 500 nm) at their half-maximal inhibitory growth concentration (IC50). Cells receiving no treatment were considered as the control group. After 48 h, the cells were washed three times with fresh PBS (pH 7.4) to remove any chemical compounds. Subsequently, the cells were fixed with 4 wt% paraformaldehyde for 15 min at room temperature. Afterwards, the cells were washed three times with PBS and permeabilized with Triton X-100 (0.1% w/v) for 5 min. The cells were washed again with PBS and stained with 300 ng mL^−1 DAPI for 15 min. DNA condensation and fragmentation in apoptotic cells were evaluated under a fluorescence microscope.
# C. albicans (ATCC 10231) [3] = test: Broth microdilution (serial double dilution) MIC/MBC; assay type: cell-based, Candida albicans; settings: for MIC: 37 °C, micro-broth dilution
# Procedure: as §2, §3
# C. glabrata (ATCC 2001) = test: Broth microdilution (serial double dilution) MIC/MBC; assay type: cell-based, Candida glabrata; settings: 24 h, 37 °C, micro-broth dilution
# Procedure: as §2, §3
# C. albicans (ATCC 10231) [4] = tested on: C. albicans (ATCC 10231); parameters: method as in PMID 31649917; settings: cited from earlier work
# Saos-2 cell line [5] = tested on: Saos-2 cell line; parameters: method as in PMID 31649917; settings: Saos-2, thiosemicarbazide ligand and metal derivatives; cited from earlier work
MIC (E. coli (ATCC 25922)) [µg/mL],MIC (B. subtilis (ATCC 6633)) [µg/mL],MIC ([2]; Pseudomonas aeruginosa) [µg/mL],Compound,IC50 (MG-63 cell line) [µg/mL],anti-cancer effect (MG-63 cell line),IC50 (Saos-2 cell line [1]) [µg/mL],anti-cancer effect (Saos-2 cell line [1]),MBC (E. coli (ATCC 25922)) [µg/mL],further results
,,,"COc1cccc2c1C(=O)c1c(O)c3c(c(O)c1C2=O)C[C@@](O)(C(=O)CO)C[C@@H]3O[C@H]1C[C@H](N)[C@H](O)[C@H](C)O1 [DOX, doxorubicin]",10.1,strong anti-cancer effects,2.1,strong anti-cancer effects,,
0.5,2,2,CNC(C)C1CCC(N)C(OC2C(N)CC(N)C(OC3OCC(C)(O)C(NC)C3O)C2O)O1 (stereo not shown) [Gentamicin],,,,,0.5,"MIC (S. aureus (ATCC 29213); ATCC29213, 24 h, 37 °C, micro-broth dilution): 0.12 µg/mL; MBC (S. aureus (ATCC 29213); ATCC29213, micro-broth dilution): 0.25 µg/mL; MBC (B. subtilis (ATCC 6633); ATCC6633, micro-broth dilution): 2 µg/mL; MBC ([2]; Pseudomonas aeruginosa, ATCC27853, micro-broth dilution): 2 µg/mL"
31.2,31.2,31.2,"CC(C)(C)c1cc2c(O)c(c1)Cc1cc(C(C)(C)C)cc(c1OCCNC(=S)NN=Cc1ccccc1O)Cc1cc(C(C)(C)C)cc(c1O)Cc1cc(C(C)(C)C)cc(c1OCCNC(=S)NN=Cc1ccccc1O)C2 [Ligand L, 5, 11, 17, 23-tetra-tert-butyl-26, 28-dihydroxy-25, 27-bis(2(2-hydroxybenzeledene)thiosemicarbazonoethoxy) calix[4]arene]",> 200,,< 25,,31.2,"morphology of cell nuclei (DAPI-stained cells) (Saos-2 cells): deformed and fragmented nuclei; antifungal activity (C. albicans (ATCC 10231) [3]): strong; MIC (C. albicans (ATCC 10231) [3]; Candida albicans, ATCC10231, 24 h, read-out: MIC): 31.2 µg/mL; MBC (C. albicans (ATCC 10231) [3]; Candida albicans, ATCC10231, micro-broth dilution): 125 µg/mL; antifungal activity (C. albicans (ATCC 10231) [3]; listed as thiosemicarbazone schiff-base ligand): significant antifungal activity; improvement of MIC in comparison with thiosemicarbazide equivalent (E. coli (ATCC 25922)): 8 fold; improvement of MIC in comparison with thiosemicarbazide equivalent [2]: 2 fold; melting point: 230 °C (dec.)"
,,,"CN(Cc1cnc2nc(N)nc(N)c2n1)c1ccc(C(=O)N[C@@H](CCC(=O)O)C(=O)O)cc1 [MTX, Methotrexate]",14.5,strong anti-cancer effects,7.9,strong anti-cancer effects,,
,,,C[C@@H]1[C@H](O)[C@@H](C)/C=C/C=C/CC/C=C/C=C/C=C/C=C/C(O[C@H]2O[C@H](C)[C@@H](O)[C@H](N)[C@@H]2O)CC2O[C@](O)(CC(O)C(O)CCC(O)CC(O)CC(O)CC(=O)O[C@H]1C)CC(O)C2C(=O)O (stereo partly shown) [Nystatin],,,,,,MIC (C. albicans (ATCC 10231) [3]; 24 h): 1.25 µg/mL; MIC (C. glabrata (ATCC 2001)): 0.625 µg/mL
,,,Bisthiosemicarbazide-substituted p-tert-butylcalix[4]arene [thiosemicarbazide ligand],,,,,,antifungal activity (C. albicans (ATCC 10231) [4]): resistant; IC50 (Saos-2 cell line [5]): > 200 µg/mL
